Results published in patent US8815849B2, “Hetero-bicyclic derivatives as HCV inhibitors” (Janssen R&D Ireland, priority 2010, dated 2014).

Experiments:
[1] = tested on: HCV replicon (Huh-Luc cells, NS3-NS5B regions of HCV type 1b); test: HCV replicon assay (Huh-7 luc/neo, luciferase readout); assay type: cell-based; details: Hepatitis C virus, Huh-7, 72 h, Huh-Luc replicon cells, three days incubation, luciferase activity; average if tested more than once; read-out: HCV-REP-HUH7LUC_EC50
From the text: The in vitro antiviral activity against HCV of the compounds of formula I can be tested in a cellular HCV replicon system based on Lohmann et al. (1999) Science 285:110-113, with the further modifications described by Krieger et al. (2001) Journal of Virology 75: 4614-4624 (incorporated herein by reference), which is further exemplified in the examples section. This model, while not a complete infection model for HCV, is widely accepted as the most robust and efficient model of autonomous HCV RNA replication currently available. It will be appreciated that it is important to distinguish between compounds that specifically interfere with HCV functions from those that exert cytotoxic or cytostatic effects in the HCV replicon model, and as a consequence cause a decrease in HCV RNA or linked reporter enzyme concentration. Assays are known in the field for the evaluation of cellular cytotoxicity based for example on the activity of mitochondrial enzymes using fluorogenic redox dyes such as resazurin. Furthermore, cellular counter screens exist for the evaluation of non-selective inhibition of linked reporter gene activity, such as firefly luciferase. Appropriate cell types can be equipped by stable transfection with a luciferase reporter gene whose expression is dependent on a constitutively active gene promoter, and such cells can be used as a counter-screen to eliminate non-selective inhibitors.
The compounds of formula (I) were examined for inhibitory activity in the HCV replicon. This cellular assay is based on a bicistronic expression construct, as described by Lohmann et al. (1999) Science vol. 285 pp. 110-113 with modifications described by Krieger et al. (2001) Journal of Virology 75: 4614-4624, in a multi-target screening strategy.
The assay utilized the stably transfected cell line Huh-7 luc/neo (hereafter referred to as Huh-Luc). This cell line harbors an RNA encoding a bicistronic expression construct comprising the wild type NS3-NS5B regions of HCV type 1b translated from an
Internal Ribosome Entry Site (IRES) from encephalomyocarditis virus (EMCV), preceded by a reporter portion (FfL-luciferase), and a selectable marker portion (neo^R, neomycine phosphotransferase). The construct is flanked by 5′ and 3′ NTRs (non-translated regions) from HCV type 1b. Continued culture of the replicon cells in the presence of G418 (neo^R) is dependent on the replication of the HCV RNA. The stably transfected replicon cells that express HCV RNA, which replicates autonomously and to high levels, encoding inter alia luciferase, were used for screening the antiviral compounds.
The replicon cells were plated in 384 well plates in the presence of the test and control compounds which were added in various concentrations. Following an incubation of three days, HCV replication was measured by assaying luciferase activity (using standard luciferase assay substrates and reagents and a Perkin Elmer ViewLux™ ultraHTS microplate imager). Replicon cells in the control cultures have high luciferase expression in the absence of any inhibitor. The inhibitory activity of the compound on luciferase activity was monitored on the Huh-Luc cells, enabling a dose-response curve for each test compound. EC50 values were then calculated, which represent the amount of compound required to decrease the level of detected luciferase activity by 50%, or more specifically, to reduce the ability of the genetically linked HCV replicon RNA to replicate.
Where a compound of formula (I) was tested more than once in the replicon assay, the average of all test results is given in this Table 1.

LLC-MDR1 monolayers = assay type: in vitro ADME; details: pig, LLC-PK1, 120 min
Protocol: Assay Description for the Measurement of Transepithelial Transport of Test Compounds Through LLC-MDR1 Monolayers
The integrity of the cellular monolayer was assessed in each incubation well through the inclusion of the fluorescent, low permeability marker compound, Fluorescein.
In detail, LLC-MDR1 cells (LLC-PK1 cells stably transduced with MDR1 in a trans-well system) were seeded on 24-well cell culture inserts (Millicell®-PCF, 0.4 μm, 13 mm Ø, 0.7 cm^2) at 400 000 cells/cm^2. Cell culture medium consists of Medium 199 supplemented with 10% Fetal Bovine Serum (FBS) and 100 U/mL Penicillin/streptomycin and was replaced the day after seeding and the day before the experiment. The transport experiment was performed 5 days after seeding. On the day of the experiment, solutions of the test compounds were applied to the apical side of the monolayers to assess transport in the AtoB direction,. The medium used in the assay was (OPTI-MEM (1×) (GIBCO) with 1 w/v % Bovine Serum Albumin. Inserts were incubated at 37° C. in a humidified incubator containing 5% CO2. Samples from the acceptor and donor compartments were collected after an incubation time of 120 min, to assess the permeability and to allow estimation of the test compound recovery during the experiment, respectively. Transport experiments were performed in triplicate. Absolute test compound concentrations were measured using LC-MS/MS and quantified via a calibration curve.

Q: COC(=O)N[C@H](C(=O)N1CCC[C@H]1c1ncc(-c2ccc3cc(-c4ccc5c(c4)NC([C@@H]4CCCN4C(=O)[C@H](NC(=O)OC)c4ccccc4)=NS5(=O)=O)ccc3c2)[nH]1)C(C)C [Compound 87] was tested. Which EC50 [1] did it give?
A: The EC50 was 8 pM.

Q: What about the “A->B permeability (Papp × 10^−6 cm/sec) in the presence the P-gp inhibitor GF120918” value (LLC-MDR1 monolayers) of the same molecule?
A: Its value is 1.0 10^−6 cm/sec.
